Experimental data as given in ChEMBL document CHEMBL1126174 (J Med Chem, 1992).

Columns and labels:
[1] = target: T1, Muscarinic acetylcholine receptor M1 (Rattus norvegicus) (UniProt P08482); settings: Hippocampus
T1 sequence (whole entry): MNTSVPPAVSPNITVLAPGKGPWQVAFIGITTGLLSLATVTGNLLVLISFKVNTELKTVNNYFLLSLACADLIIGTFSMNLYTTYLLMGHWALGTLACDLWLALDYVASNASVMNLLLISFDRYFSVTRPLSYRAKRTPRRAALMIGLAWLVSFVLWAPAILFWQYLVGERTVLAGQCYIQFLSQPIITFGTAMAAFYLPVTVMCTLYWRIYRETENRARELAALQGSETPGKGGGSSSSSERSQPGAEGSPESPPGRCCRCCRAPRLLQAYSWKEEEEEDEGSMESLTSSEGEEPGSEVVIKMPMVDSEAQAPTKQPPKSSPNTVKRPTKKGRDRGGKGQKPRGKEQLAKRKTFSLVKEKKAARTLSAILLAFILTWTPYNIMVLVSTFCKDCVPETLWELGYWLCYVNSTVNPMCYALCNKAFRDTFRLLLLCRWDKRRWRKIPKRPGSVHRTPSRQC

[2] = target: Muscarinic acetylcholine receptor M3 (Cavia porcellus) (UniProt Q8VH26); settings: Ileum
Description: Peripheral postsynaptic muscarinic activity by contraction of the guinea pig ileum.

[3] = target: Muscarinic acetylcholine receptor
Description: Ability to displace [3H]cis--2-methyl-5-((dimethylamino)methyl)-1,3-di oxolane from muscarinic acetylcholine receptor in rat cortical tissue.

[4] = target: T2, Muscarinic acetylcholine receptor M1 (Rattus norvegicus, UniProt P08482)
T2 sequence (P08482 whole entry): T1 sequence (whole entry)
Description: Ability to displace [3H]pirenzepine (pir) from muscarinic acetylcholine receptor M1 in rat cortical tissue.

[5] = target: T1, Muscarinic acetylcholine receptor M1 (Rattus norvegicus); settings: Cervical ganglion
Cavia porcellus = organism: Cavia porcellus; experiment: (§1) Peripheral postsynaptic muscarinic activity was measured by contraction of the guinea pig ileum in M3 model; type: functional
[6] = target: T2, Muscarinic acetylcholine receptor M1; experiment: Compound was tested for its ability to displace [3H]pirenzepine (pir) from M1 Muscarinic receptor in rat cortical tissue
[7] = target: Muscarinic acetylcholine receptor M3 (Cavia porcellus) (UniProt Q8VH26); experiment: Peripheral postsynaptic muscarinic activity was measured relative to muscarine (100%); type: functional
[8] = target: T1, Muscarinic acetylcholine receptor M1 (Rattus norvegicus); experiment: Neuronal postsynaptic muscarinic activity was measured by firing rate of the rat hippocampal CA1 neurons in M1 model; type: functional, tissue-based; settings: Hippocampus
[9] = target: T1, Muscarinic acetylcholine receptor M1 (Rattus norvegicus); experiment: Central postsynaptic muscarinic activity was measured by slow depolarization of the rat cervical ganglion in M1 model; type: functional, tissue-based
[10] = Ratio of binding affinities towards muscarinic receptor using Pir to that of CD as radioligand
[11] = target: Muscarinic acetylcholine receptor; remark: listed apart in the source
[12] = target: Muscarinic acetylcholine receptor M3 (Cavia porcellus) (UniProt Q8VH26); experiment: as §1; type: functional, tissue-based
[13] = target: T1, Muscarinic acetylcholine receptor M1 (Rattus norvegicus); experiment: Central postsynaptic muscarinic activity was measured relative to muscurine (100%); type: functional, tissue-based

Muscarinic acetylcholine receptor M3 (Cavia porcellus), sequence (Q8VH26 1-587): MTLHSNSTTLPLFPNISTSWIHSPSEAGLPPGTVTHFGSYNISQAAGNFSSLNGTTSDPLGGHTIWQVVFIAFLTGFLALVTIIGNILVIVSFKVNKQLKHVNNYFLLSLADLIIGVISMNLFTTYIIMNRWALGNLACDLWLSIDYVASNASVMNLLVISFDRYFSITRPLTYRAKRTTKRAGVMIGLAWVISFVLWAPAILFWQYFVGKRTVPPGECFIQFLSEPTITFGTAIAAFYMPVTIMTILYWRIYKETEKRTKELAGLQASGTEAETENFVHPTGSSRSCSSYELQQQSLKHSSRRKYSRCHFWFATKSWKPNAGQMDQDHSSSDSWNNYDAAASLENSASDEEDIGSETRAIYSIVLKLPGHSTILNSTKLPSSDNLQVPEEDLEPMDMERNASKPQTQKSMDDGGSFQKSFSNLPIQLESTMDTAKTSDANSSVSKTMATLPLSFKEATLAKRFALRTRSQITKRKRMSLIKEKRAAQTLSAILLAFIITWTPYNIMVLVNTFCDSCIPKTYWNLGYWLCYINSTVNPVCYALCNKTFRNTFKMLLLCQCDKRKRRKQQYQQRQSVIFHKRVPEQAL

Question: Which pD2 [1] does the source give for `CC[C@H]1C(=O)N(C)C[C@@H]1Cc1cncn1C` here?
Answer: Its pD2 is 4.1.

Question: What about the pD2 [2] of the same molecule?
Answer: The pD2 was under 4.

Question: And the IC50 [3]?
Answer: Its IC50 is 10000 nM.

Question: And the IC50 [4]?
Answer: The IC50 was 10000 nM.

Question: And the pD2 [5]?
Answer: The pD2 was 4.4.

Question: Which pD2 [1] does the source give for `O=C1CCCN1CC#CCN1CCCC1` [OXOTREMORINE] here?
Answer: The pD2 was 7.1.

Question: And the pD2 [2]?
Answer: The pD2 was 7.1.

Question: And the IC50 [3]?
Answer: Its IC50 is 2.8 nM.

Question: What about the IC50 [4] of the same molecule?
Answer: The IC50 was 113 nM.

Question: What about the pD2 [5] of the same molecule?
Answer: The pD2 was 8.

Question: For `CC[C@@H]1COC[C@@H]1Cc1cncn1C`, which pD2 [1] is on record?
Answer: Its pD2 is under 4.

Question: And the pD2 [2]?
Answer: The pD2 was 4.5.

Question: What about the IC50 [3] of the same molecule?
Answer: Its IC50 is 445 nM.

Question: And the IC50 [4]?
Answer: Its IC50 is 1800 nM.

Question: And the pD2 [5]?
Answer: Its pD2 is 5.7.

Question: With `CCN1C(=O)OC[C@@H]1Cc1cncn1C` as the molecule, how does the pD2 [1] read?
Answer: Its pD2 is 5.6.

Question: What about the pD2 [2] of the same molecule?
Answer: Its pD2 is 5.4.

Question: What about the IC50 [3] of the same molecule?
Answer: The IC50 was 100 nM.

Question: What about the IC50 [4] of the same molecule?
Answer: The IC50 was 288 nM.

Question: And the pD2 [5]?
Answer: The pD2 was 6.1.

Question: Which pD2 [1] does the source give for `CC[C@@H]1C(=O)SC[C@@H]1Cc1cncn1C` here?
Answer: Its pD2 is 5.3.

Question: And the pD2 [2]?
Answer: Its pD2 is 5.3.

Question: What about the IC50 [3] of the same molecule?
Answer: Its IC50 is 54 nM.

Question: And the IC50 [4]?
Answer: Its IC50 is 435 nM.

Question: What about the pD2 [5] of the same molecule?
Answer: Its pD2 is 6.5.

Question: For `CC[C@@H]1C(O)SC[C@@H]1Cc1cncn1C` (stereo partly specified), which pD2 [1] is on record?
Answer: Its pD2 is under 4.

Question: And the pD2 [2]?
Answer: The pD2 was under 4.

Question: And the IC50 [3]?
Answer: Its IC50 is 705 nM.

Question: What about the IC50 [4] of the same molecule?
Answer: The IC50 was 695 nM.

Question: What about the pD2 [5] of the same molecule?
Answer: Its pD2 is 4.4.

Question: With `CC[C@H]1C(=S)SC[C@@H]1Cc1cncn1C` as the molecule, how does the pD2 [2] read?
Answer: The pD2 was 5.6.

Question: And the IC50 [3]?
Answer: The IC50 was 45 nM.

Question: What about the IC50 [4] of the same molecule?
Answer: The IC50 was 51 nM.

Question: What about the pD2 [5] of the same molecule?
Answer: The pD2 was 5.2.

Question: What does the source list for `CC1OCC(CN(C)C)O1` (stereo unspecified)?
Answer: pD2 [1]: 6.3; pD2 [2]: 7.5; IC50 [3]: 6.4 nM; IC50 [4]: 2100 nM; pD2 [5]: 7.8

Question: With `Cc1ccc(C[N+](C)(C)C)o1` as the molecule, how does the pD2 [1] read?
Answer: Its pD2 is 5.8.

Question: What about the pD2 (Cavia porcellus) of the same molecule?
Answer: Its pD2 is 6.8.

Question: What about the IC50 [3] of the same molecule?
Answer: The IC50 was 5.6 nM.

Question: What about the IC50 [4] of the same molecule?
Answer: The IC50 was 1410 nM.

Question: And the pD2 [5]?
Answer: Its pD2 is 7.1.

Question: Which pD2 [1] does the source give for `CC[C@H]1C(=O)SC[C@@H]1Cc1cncn1C` here?
Answer: Its pD2 is 5.4.

Question: And the pD2 [2]?
Answer: The pD2 was 4.8.

Question: And the IC50 [3]?
Answer: Its IC50 is 320 nM.

Question: What about the IC50 [4] of the same molecule?
Answer: The IC50 was 775 nM.

Question: And the pD2 [5]?
Answer: Its pD2 is 4.7.

Question: For `CC[C@@H]1C(=O)NC[C@@H]1Cc1cncn1C`, which pD2 [1] is on record?
Answer: Its pD2 is 4.5.

Question: And the pD2 [2]?
Answer: Its pD2 is 4.2.

Question: And the IC50 [3]?
Answer: The IC50 was 845 nM.

Question: What about the IC50 [4] of the same molecule?
Answer: The IC50 was 5150 nM.

Question: What about the pD2 [5] of the same molecule?
Answer: Its pD2 is 5.2.

Question: Which IC50 [6] does the source give for `CC[C@@H]1C(O)OC[C@@H]1Cc1cncn1C` (stereo partly specified) here?
Answer: Its IC50 is 110000 nM.

Question: What about the Efficiency [7] of the same molecule?
Answer: Its Efficiency is 22%.

Question: What about the pD2 [8] of the same molecule?
Answer: Its pD2 is under 4.

Question: What about the pD2 [9] of the same molecule?
Answer: The pD2 was 5.9.

Question: And the Ratio [10]?
Answer: The Ratio was 2.4.

Question: What about the IC50 [11] of the same molecule?
Answer: Its IC50 is 45000 nM.

Question: What about the pD2 [12] of the same molecule?
Answer: The pD2 was 5.2.

Question: What about the Efficiency [13] of the same molecule?
Answer: The Efficiency was 65%.

Question: What does the source list for `CC[C@H]1C(=O)NC[C@@H]1Cc1cncn1C`?
Answer: pD2 [1]: 4.7; pD2 [2]: 4.6; IC50 [3]: 800 nM; IC50 [4]: 9950 nM; pD2 [5]: 5.6

Question: Which pD2 [1] does the source give for `C[C@@H]1O[C@H](C[N+](C)(C)C)C[C@H]1O` here?
Answer: The pD2 was 5.9.

Question: And the pD2 [2]?
Answer: Its pD2 is 6.8.

Question: And the pD2 [5]?
Answer: The pD2 was 7.4.

Question: For `C[N+](C)(C)CCOC(N)=O`, which pD2 [1] is on record?
Answer: Its pD2 is 6.

Question: And the pD2 [2]?
Answer: Its pD2 is 6.7.

Question: And the pD2 [5]?
Answer: Its pD2 is 7.2.

Question: With `CC[C@H]1C(O)SC[C@@H]1Cc1cncn1C` (stereo partly specified) as the molecule, how does the pD2 [1] read?
Answer: Its pD2 is under 4.

Question: And the pD2 [2]?
Answer: The pD2 was under 4.

Question: What about the IC50 [3] of the same molecule?
Answer: The IC50 was 330 nM.

Question: What about the IC50 [4] of the same molecule?
Answer: The IC50 was 285 nM.

Question: And the pD2 [5]?
Answer: The pD2 was 4.7.

Question: With `Cn1cncc1C[C@H]1COC(=O)C1` [PILOSININE] as the molecule, how does the pD2 [2] read?
Answer: Its pD2 is under 4.

Question: And the IC50 [3]?
Answer: The IC50 was 2890 nM.

Question: What about the IC50 [4] of the same molecule?
Answer: Its IC50 is 10000 nM.

Question: And the pD2 [5]?
Answer: The pD2 was 4.2.

Question: Which pD2 [2] does the source give for `CC[C@@H]1C(=O)N(C)C[C@@H]1Cc1cncn1C` here?
Answer: The pD2 was 4.2.

Question: What about the IC50 [3] of the same molecule?
Answer: The IC50 was 4600 nM.

Question: What about the IC50 [4] of the same molecule?
Answer: Its IC50 is 10200 nM.

Question: And the pD2 [5]?
Answer: Its pD2 is 100.
